The values that follow come from the OPERA property sets (Mansouri et al. 2018).

Each structure is given as a SMILES string. Values after ≈ are worked out from the molar mass of the structure shown. Where only a bound is given, the exact number is not on record here.

Regarding `CN=C(O)/C(=N/OC)c1ccccc1Oc1ccccc1`, the logP (commonly the decadic logarithm of the partition coefficient of the neutral form, usually between octanol and water) worked out at 2.32.
On to `NC(=O)C1(N2C(=O)c3cccc(Cl)c3C2=O)CCCCC1`, for which, where the note is “25 °C”, the solubility (usually the concentration that dissolves in the medium under given conditions) was found to be 97.8 µM (≈ 30 µg/mL).
For `CCSCc1ccccc1OC(=O)NC`, the logP was found to be 2.04.
`COCC(=O)N(c1c(C)cccc1C)N1CCOC1=O` returned a logP of 0.8. Where the note is “20 °C”, the solubility came to 12200 µM (≈ 3400 µg/mL).
Compound `CCS(=O)CCSP(=O)(OC)OC` (stereo unspecified) had a log partition coefficient (logP) of -0.74.
For `C#CCOc1cc(-n2nc3n(c2=O)CCCC3)c(Cl)cc1Cl`, the solubility (pH 7.0) stood at 47.3 µM (≈ 16 µg/mL).
As to `O=C1c2ccccc2C(=O)N1SC(Cl)(Cl)Cl`, the solubility (25 °C) was 2.7 µM (≈ 0.8 µg/mL).
`CC1(C)CCC(=Cc2ccc(Cl)cc2)C1(O)Cn1cncn1` (stereo unspecified) showed a logP of 3.29.
`O=C(NC(=O)c1ccccc1Cl)Nc1ccc(OC(F)(F)F)cc1` had a logP of 4.91. Also, the solubility (20 °C) worked out at 0.0697 µM (≈ 0.025 µg/mL).
For `N#Cc1nn(-c2c(Cl)cc(C(F)(F)F)cc2Cl)c(N)c1S(=O)C(F)(F)F` (stereo unspecified), in that order: 4 and 4.35 µM (≈ 1.9 µg/mL).
As for `CCCCCC(C)OC(=O)COc1ccc(Cl)c2cccnc12` (stereo unspecified), the log partition coefficient (logP) was 5.03. This compound also showed a solubility (25 °C) of 1.76 µM (≈ 0.59 µg/mL).
In turn, `CCOC(=O)c1cnn(C)c1S(=O)(=O)NC(=O)Nc1nc(OC)cc(OC)n1` yielded a log partition coefficient (logP) of 1.3.
In the case of `CN(C)c1nc(=O)n(C2CCCCC2)c(=O)n1C`, the solubility (25 °C) is 131000 µM (≈ 33000 µg/mL).
In turn, `C=CCC1=C(C)C(OC(=O)C2C(C=C(C)C)C2(C)C)CC1=O` (stereo unspecified) returned a solubility (25 °C) of 15.2 µM (≈ 4.6 µg/mL).
`CN(C)NC(=O)CCC(=O)O`: the logP was -1.5.
The same measure, in the same setting: in the case of `O=C1C2CC=CCC2C(=O)N1SC(Cl)(Cl)Cl` (stereo unspecified) it was 2.8.
As to `O=c1c2cc(F)ccc2nc(-n2cncn2)n1-c1ccc(Cl)cc1Cl`, the pH-dependent lipophilicity (logD) – broadly, lipophilicity at a set pH, counting ionised and neutral species – (pH 5.6) came to 3.24.
`CCOc1ccc([Si](C)(C)CCCc2ccc(F)c(Oc3ccccc3)c2)cc1`: the logP worked out at 8.2.
As for `COc1ccsc1CN(C(=O)CCl)c1c(C)cccc1C`, the logP is 3.53. In addition, the solubility (20 °C) stood at 34 µM (≈ 11 µg/mL).
As for `CCNc1nc(Cl)nc(N(CC)CC)n1`, the solubility (25 °C) was 87.1 µM (≈ 20 µg/mL).
For the compound `CC#CCOC(C)c1ccc(OC)c(OC)c1` (stereo unspecified), the logP worked out at 2.4 and the solubility came out at 4.27 µM (≈ 1 µg/mL).
`Clc1ccc(CSC(Cn2cncn2)=Nc2ccc(Cl)cc2Cl)cc1` yielded a lipophilicity (logP) of 4.94.
As to `CCS(=O)(=O)c1nc2ccccn2c1S(=O)(=O)NC(=O)Nc1nc(OC)cc(OC)n1`, where the note is “pH 5.0, 20 °C”, the solubility is 38.1 µM (≈ 17.9 µg/mL).
As for `CCCN(CCC)c1c([N+](=O)[O-])cc(C(F)(F)F)cc1[N+](=O)[O-]`, the solubility (pH 5.0, 25 °C) came to 0.701 µM (≈ 0.235 µg/mL).
Regarding `CCOc1ccc(C(C)(C)COCc2cccc(Oc3ccccc3)c2)cc1`, the solubility (25 °C) was less than 0.00266 µM.
With `COC(=O)c1c(C(F)F)nc(C(F)(F)F)c(C2=NCCS2)c1CC(C)C`, the log partition coefficient (logP) amounted to 3.89.
On to `Nc1c(Cl)cc([N+](=O)[O-])cc1Cl`, for which the logP worked out at 2.8.
Take `COc1cc(OC)nc(NC(=O)NS(=O)(=O)c2c(-c3nnn(C)n3)cnn2C)n1`: the logP worked out at 0.65. This compound also displayed a solubility (pH 7.0, 20 °C) of 2470 µM (≈ 1050 µg/mL).
`COC(C)(C)CCCC(C)C/C=C/C(C)=C/C(=O)OC(C)C` (stereo unspecified): the solubility amounted to 4.51 µM (≈ 1.4 µg/mL).
Compound `Cc1cccc(C)c1N(C(=O)CCl)C1CCOC1=O` (stereo unspecified) returned a logP of 1.39. Where the note is “20 °C”, this compound displayed a solubility of 518 µM (≈ 146 µg/mL).
`CCOC(=O)[C@@H](C)Oc1ccc(Oc2nc3ccc(Cl)cc3o2)cc1` gave a lipophilicity (logP) of 4.58.
Still for that read-out and setting: the value for `CCCCOC(=O)C1(O)c2ccccc2-c2ccccc21` was 3.7; that for `CC(C)(C)C(O)/C(=C\c1ccc(Cl)cc1)n1cncn1` (stereo unspecified) was 3.67; that for `C=CCCCOC(=O)C(CC)N(Cc1ccco1)C(=O)n1ccnc1` (stereo unspecified) was 3.
As to `C=C(C)CN(CC)c1c([N+](=O)[O-])cc(C(F)(F)F)cc1[N+](=O)[O-]`, the solubility (pH 7.0, 25 °C) worked out at 0.735 µM (≈ 0.245 µg/mL).
For `CCOP(=S)(OCC)Oc1ncn(-c2ccccc2)n1`, the logP came out at 3.34. This compound gave a solubility (pH 7.0, 20 °C) of 99.2 µM (≈ 31.1 µg/mL).
In turn, `N#Cc1c(Cl)cccc1Cl` displayed a solubility (20 °C) of 105 µM (≈ 18 µg/mL).
Turning to `O=C(O)c1c(Cl)c(Cl)c(Cl)c(Cl)c1C(O)=Nc1cccc(Cl)c1Cl`, the solubility (26 °C) was 31.3 µM (≈ 14 µg/mL).
As for `CS(=O)(=O)c1ccc(C(=O)C2C(=O)CCCC2=O)c(Cl)c1`, the solubility (25 °C) stood at 502 µM (≈ 165 µg/mL).
In the case of `CCSC(=O)COc1ccc(Cl)cc1C`, the lipophilicity (logP) came to 4.05.
On to `O=CNC(N1CCN(C(NC=O)C(Cl)(Cl)Cl)CC1)C(Cl)(Cl)Cl` (stereo unspecified), for which the logP was 2.2.
On to `Cc1ccc(N(SC(F)(Cl)Cl)S(=O)(=O)N(C)C)cc1`, for which the logP was found to be 3.9. This compound had a solubility (20 °C) of 2.59 µM (≈ 0.9 µg/mL).
For the setting “pH 5.0, 20 °C”, `COC(=O)c1c(Cl)nn(C)c1S(=O)(=O)NC(=O)Nc1nc(OC)cc(OC)n1` returned a solubility of 34.3 µM (≈ 14.9 µg/mL). Further, the pH-dependent lipophilicity (logD) (pH 7.0) is -0.02.
The compound `CC(C)OC(=O)[C@@H](C)N(C(=O)c1ccccc1)c1ccc(F)c(Cl)c1` gave a logP of 3.69.
Compound `NC(=O)c1nc(-c2ccccc2)n(-c2ccc(Cl)c(COCC(F)(F)C(F)(F)F)c2)n1` showed a solubility (pH 7.4, 20 °C) of 2.17 µM (≈ 1 µg/mL).
